Measurements reported in EP4289421A1, “COMBINATION OF PALMITOYLETHANOLAMIDE (PEA) AND MELATONIN FOR THE TREATMENT OF MAST CELL HYPER-REACTIVITY” (Erbozeta S.p.A., priority 2022, dated 2023).

System: human mast cell line (HMC-1.1)
Assay: Release of pro-pain and pro-inflammatory mediators (degranulation) by activated human mast cells
Assay type: cell-based
Settings: HMC-1.1 activated by compound 48/80 or substance P; substances added individually or combined
Experimental: A human mast cell line (HMC-1.1) was activated both by compound 48/80 (a potent synthetic stimulant, available from Sigma-Aldrich) and by substance P (potent physiological stimulant, CAS number 33507-63-0). The release of pro-pain and pro-inflammatory mediators, such as histamine, TNF-α and IL-6, was then measured in the absence of PEA and melatonin, in the presence of PEA or melatonin alone as well as in the presence of PEA + melatonin. The use of mast cells of human origin, compared to classic murine mast cells, has allowed to measure, with high reliability, the release not only of histamine but also of protein mediators such as TNF-α and IL-6. The in vitro analysis then made it possible to evaluate the effects of the combination at the mast cell level in a highly specific and precise manner. A direct study on a biological organism, ultimately humans, would have been insensitive as the variation of pro-pain and pro-inflammatory mediators, detected in the blood or in any body fluid, would have depended on an action of PEA and melatonin on various cell types, and not exclusively on mast cells.

CCCCCCCCCCCCCCCC(=O)NCCO [PEA, palmitoylethanolamide]
reduction in the release of mast cell mediators (histamine, TNF-α, IL-6): comparable reduction in the release of mast cell mediators

COc1ccc2[nH]cc(CCNC(C)=O)c2c1 [melatonin]
reduction in the release of mast cell mediators (histamine, TNF-α, IL-6): comparable reduction in the release of mast cell mediators
